Patent US10815257B2, “Polymorph of sodium neridronate and preparation process thereof” (ABIOGEN PHARMA S.P.A., priority 2018, dated 2020)

How the values were obtained:
Type in all cases: physicochemical
[1] = Hygroscopicity study by Dynamic Vapor Sorption (DVS); conditions: 25° C.; for mass variation (humidity absorption, DVS): 90% relative humidity (RH); for behavior in DVS hygroscopicity study: RH 0 to 90%
Protocol: The Hygroscopicity study was carried out on samples of polymorphic crystalline forms F, B and E of sodium neridronate by measuring the humidity absorption kinetics, in a range of relative humidity (RH %) comprised between 0 and 90%, at the temperature of 25° C.

[2] = Stability study at 40° C. and 75% RH monitored by XRD; conditions: for stability of crystalline form over time (XRD): eight weeks observation
Protocol: The stability study was carried out on samples of crystalline polymorphic forms B, E, and the hemihydrate form F of sodium neridronate, stored in an environment characterized by 75% relative humidity (RH) and a temperature of 40° C.
The observation of the sample stability lasted for a period of eight weeks, during which once a week, […], an aliquot was taken from each sample and subjected to XRD analysis to observe any possible crystalline changes of the various samples over time.

[3] = Thermodynamic solubility test; conditions: buffer solution pH 7.4, 37° C., stirring about 500 rpm
Protocol: For this purpose, a dissolution test was carried out in a buffer solution at pH 7.4. The thermodynamic solubility evaluation was performed leaving the sample in the buffer solution, under magnetic stirring at about 500 rpm, for a period of 24 hours, at a temperature of 37° C.

| SMILES | mass variation (humidity absorption, DVS) [1] | behavior in DVS hygroscopicity study [1] | onset of conversion into crystalline hemihydrate form F (XRD) [2] | extent of conversion into form F at the end of the observation period (XRD) ([2]; eight weeks) | stability of crystalline form over time (XRD) [2] | thermodynamic solubility ([3]; 24 hours) [mg/mL] | extent of conversion into form F after seven weeks (XRD) ([2]; seven weeks) | solubility thermodynamic at 24 h ([3]; buffer solution, 37 °C, pH 7.4, aqueous buffer, thermodynamic from solid) [mg/mL] |
| --- | --- | --- | --- | --- | --- | --- | --- | --- |
| NCCCCCC(O)(P(=O)([O-])O)P(=O)(O)O.[Na+] [form B, sodium neridronate] | about 5% | hydrophilic behavior | begin to convert into the crystalline hemihydrate form F already after a week | only partially converted | not stable over time | 92.97 | – | – |
| NCCCCCC(O)(P(=O)([O-])O)P(=O)(O)O.[Na+] [form E, sodium neridronate] | about 1% | hydrophilic behavior | begin to convert into the crystalline hemihydrate form F already after a week | – | not stable over time | – | completely converted into the crystalline hemihydrate form F | – |
| NCCCCCC(O)(P(=O)([O-])O)P(=O)(O)O.[Na+] [form F, sodium neridronate] | without any appreciable mass variation | hydrophobic behavior | – | – | stable even after eight weeks conditioning | – | – | 93.7 |
